From US7691858B2, “Kinase inhibitors and methods of use thereof” (TargeGen, Inc., priority 2006, dated 2010)

Columns and labels:
[1] = molecular target: T1, Ros (Homo sapiens, UniProt P08922); assay: Kinase panel screen; format: biochemical; details: Compound I and ATP 10 μM
T1 construct: purchased Upstate USA or Invitrogen (commercial screening service)

[2] = molecular target: T2, EphB4 (Homo sapiens, UniProt P54760); assay: Kinase panel screen; format: biochemical; details: Compound I and ATP 10 μM
T2 construct: purchased Upstate USA or Invitrogen (commercial screening service)

[3] = molecular target: CHK1 (Homo sapiens, UniProt O14757); assay: Kinase panel screen; format: biochemical; details: Compound I and ATP 10 μM
[4] = molecular target: T3, IKKβ (Homo sapiens, UniProt O14920); assay: Kinase panel screen; format: biochemical; details: Compound I and ATP 10 μM
T3 construct: purchased Upstate USA or Invitrogen (commercial screening service)

[5] = molecular target: T4, FGFR2 (Homo sapiens, UniProt P21802); assay: Kinase panel screen; format: biochemical; details: Compound I and ATP 10 μM
T4 construct: purchased Upstate USA or Invitrogen (contract screening service)

[6] = molecular target: T5, BTK (Homo sapiens, UniProt Q06187); assay: Kinase panel screen; format: biochemical; details: Compound I and ATP 10 μM
T5 construct: purchased Upstate USA or Invitrogen (commercial screening service)

[7] = molecular target: T6, PAK4 (Homo sapiens, UniProt O96013); assay: Kinase panel screen; format: biochemical; details: Compound I and ATP 10 μM
T6 construct: purchased Upstate USA or Invitrogen (commercial screening service)

[8] = molecular target: PKB 3 (Homo sapiens, UniProt P31751); assay: Kinase panel screen; format: biochemical; details: read-out: Percent Control, PKB 3
[9] = tested on: VE-cadherin phosphorylation; assay: VEGF-induced VE-cadherin phosphorylation in EC (Western blot); format: cell-based; details: 10 uM Compound I, EC with VEGF
Experimental: FIG. 3. Inhibition of cell proliferation and signaling. (a) EC were cultured in the presence of vehicle (DMSO) or PI3K inhibitors (all at 10 μM); cell proliferation was assessed either 24 (open bar), 48 (grey bar), or 72 h (black bar) later.
Western blots: Cell cultures were rinsed twice with PBS and then lysed using RIPA buffer (100 mM Tris, 150 mM NaCl, 2 mM CaCl2, 1% deoxycholic acid, 1% Triton X-100, 0.1% SDS, pH 7.5) containing PMSF (2 mM), NaF (500 mM), aprotinin (10 μg/ml), leupeptin (10 μg/ml) and vanadate (1 mM). Tissue samples were placed in ice-cold RIPA buffer and processed to lysates using a FastPrep homogenizer (QBiogene, Carlsbad, Calif.). Lysates were centrifuged at 15,000×g followed by assay for total protein using the bicinchoninic acid method (Pierce Biotechnology, Rockford, Ill.), then loaded at equal protein concentration onto gels for SDS-PAGE electrophoresis and Western blotting. For phosphorylated VE-cadherin detection blots were probed with primary antibody (Santa Cruz Biotechnology, Santa Cruz, Calif.) followed by a chemiluminescent detection system (Pierce Biotechnology). The same techniques were used to detect both phosphorylated and total ERK and Akt, except that primary antibodies were supplied by Cell Signaling Technology (Beverly, Mass.) and BD Biosciences (San Jose, Calif.), respectively.

[10] = molecular target: T7, IKKa (Homo sapiens, UniProt O15111); assay: Kinase panel screen; format: biochemical; details: Compound I and ATP 10 μM
T7 construct: purchased Upstate USA or Invitrogen (commercial screening service)

[11] = molecular target: T8, CDK7 (Homo sapiens, UniProt P50613); assay: Kinase panel screen; format: biochemical; details: Compound I and ATP 10 μM
T8 construct: purchased Upstate USA or Invitrogen (contract screening service)

[12] = molecular target: T9, PAR-1Ba (Homo sapiens, UniProt Q7KZI7); assay: Kinase panel screen; format: biochemical; details: Compound I and ATP 10 μM
T9 construct: purchased Upstate USA or Invitrogen (commercial screening service)

[13] = molecular target: T10, Flt1 (Homo sapiens, UniProt P17948); assay: Kinase panel screen; format: biochemical; details: Compound I and ATP 10 μM
T10 construct: purchased Upstate USA or Invitrogen (commercial screening service)

[14] = molecular target: T11, CDK2 (Homo sapiens, UniProt P24941); assay: Kinase panel screen; format: biochemical; details: Compound I and ATP 10 μM
T11 construct: purchased Upstate USA or Invitrogen (commercial screening service)

[15] = molecular target: T12, PDGFRa (Homo sapiens, UniProt P16234); assay: Kinase panel screen; format: biochemical; details: Compound I and ATP 10 μM
T12 construct: purchased Upstate USA or Invitrogen (commercial screening service)

[16] = molecular target: INK3 (Rattus norvegicus, UniProt P49187); assay: Kinase panel screen; format: biochemical; details: Compound I and ATP 10 μM
[17] = molecular target: T13, GSK3 3 (Homo sapiens, UniProt P49841); assay: Kinase panel screen; format: biochemical; details: Compound I and ATP 10 μM
T13 construct: purchased Upstate USA or Invitrogen (commercial screening service)

[18] = molecular target: T14, NEK2 (Homo sapiens, UniProt P51955); assay: Kinase panel screen; format: biochemical; details: Compound I and ATP 10 μM
T14 construct: purchased Upstate USA or Invitrogen (commercial screening service)

[19] = molecular target: T15, Abl (Mus musculus, UniProt P00520); assay: Kinase panel screen; format: biochemical; details: Compound I and ATP 10 μM
T15 construct: purchased Upstate USA or Invitrogen (commercial screening service)

[20] = molecular target: T16, FGFR1 (Homo sapiens, UniProt P11362); assay: Kinase panel screen; format: biochemical; details: Compound I and ATP 10 μM
T16 construct: purchased Upstate USA or Invitrogen (contract screening service)

[21] = molecular target: T17, PRAK (Homo sapiens, UniProt Q8IW41); assay: Kinase panel screen; format: biochemical; details: Compound I and ATP 10 μM
T17 construct: purchased Upstate USA or Invitrogen (contract screening service)

[22] = molecular target: Akt2 (Homo sapiens, UniProt P31751); assay: Kinase panel screen; format: biochemical; details: Compound I at 1 μM and ATP at the apparent Km
[23] = molecular target: T18, HIPK2 (Homo sapiens, UniProt Q9H2X6); assay: Kinase panel screen; format: biochemical; details: Compound I and ATP 10 μM
T18 construct: purchased Upstate USA or Invitrogen (commercial screening service)

[24] = molecular target: T19, BRK (Homo sapiens, UniProt Q13882); assay: Kinase panel screen; format: biochemical; details: Compound I and ATP 10 μM
T19 construct: purchased Upstate USA or Invitrogen (commercial screening service)

[25] = molecular target: T20, PKCpi (Homo sapiens, UniProt P05771); assay: Kinase panel screen; format: biochemical; details: Compound I and ATP 10 μM
T20 construct: purchased Upstate USA or Invitrogen (commercial screening service)

T12 sequence (P16234 24-1089): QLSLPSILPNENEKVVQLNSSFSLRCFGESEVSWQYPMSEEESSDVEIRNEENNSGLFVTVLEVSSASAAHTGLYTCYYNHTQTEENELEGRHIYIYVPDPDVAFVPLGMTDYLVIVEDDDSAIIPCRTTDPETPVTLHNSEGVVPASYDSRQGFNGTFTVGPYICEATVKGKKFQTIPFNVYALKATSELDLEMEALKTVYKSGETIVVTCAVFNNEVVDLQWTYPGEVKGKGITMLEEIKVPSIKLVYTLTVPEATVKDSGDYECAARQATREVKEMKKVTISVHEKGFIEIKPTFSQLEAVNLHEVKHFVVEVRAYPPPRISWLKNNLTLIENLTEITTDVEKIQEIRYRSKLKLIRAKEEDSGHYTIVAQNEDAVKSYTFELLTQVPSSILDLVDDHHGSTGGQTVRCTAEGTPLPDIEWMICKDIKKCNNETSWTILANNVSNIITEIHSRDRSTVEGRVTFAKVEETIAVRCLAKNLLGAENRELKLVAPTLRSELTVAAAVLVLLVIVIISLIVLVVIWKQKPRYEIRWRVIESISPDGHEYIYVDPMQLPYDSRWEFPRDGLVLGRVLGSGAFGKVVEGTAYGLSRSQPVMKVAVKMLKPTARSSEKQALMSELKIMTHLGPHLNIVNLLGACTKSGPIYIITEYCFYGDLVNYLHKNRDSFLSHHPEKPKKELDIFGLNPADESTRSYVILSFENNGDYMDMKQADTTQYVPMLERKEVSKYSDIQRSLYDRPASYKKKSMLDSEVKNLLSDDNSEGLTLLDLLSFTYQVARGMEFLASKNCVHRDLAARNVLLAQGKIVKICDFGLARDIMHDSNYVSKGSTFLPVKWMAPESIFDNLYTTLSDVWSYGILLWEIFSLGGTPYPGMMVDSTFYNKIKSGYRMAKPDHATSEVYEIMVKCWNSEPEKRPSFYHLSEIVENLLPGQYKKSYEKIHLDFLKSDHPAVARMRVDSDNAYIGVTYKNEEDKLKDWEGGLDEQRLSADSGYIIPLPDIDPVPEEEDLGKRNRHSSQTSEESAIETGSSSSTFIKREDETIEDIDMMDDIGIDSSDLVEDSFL
T10 sequence (P17948 27-1338): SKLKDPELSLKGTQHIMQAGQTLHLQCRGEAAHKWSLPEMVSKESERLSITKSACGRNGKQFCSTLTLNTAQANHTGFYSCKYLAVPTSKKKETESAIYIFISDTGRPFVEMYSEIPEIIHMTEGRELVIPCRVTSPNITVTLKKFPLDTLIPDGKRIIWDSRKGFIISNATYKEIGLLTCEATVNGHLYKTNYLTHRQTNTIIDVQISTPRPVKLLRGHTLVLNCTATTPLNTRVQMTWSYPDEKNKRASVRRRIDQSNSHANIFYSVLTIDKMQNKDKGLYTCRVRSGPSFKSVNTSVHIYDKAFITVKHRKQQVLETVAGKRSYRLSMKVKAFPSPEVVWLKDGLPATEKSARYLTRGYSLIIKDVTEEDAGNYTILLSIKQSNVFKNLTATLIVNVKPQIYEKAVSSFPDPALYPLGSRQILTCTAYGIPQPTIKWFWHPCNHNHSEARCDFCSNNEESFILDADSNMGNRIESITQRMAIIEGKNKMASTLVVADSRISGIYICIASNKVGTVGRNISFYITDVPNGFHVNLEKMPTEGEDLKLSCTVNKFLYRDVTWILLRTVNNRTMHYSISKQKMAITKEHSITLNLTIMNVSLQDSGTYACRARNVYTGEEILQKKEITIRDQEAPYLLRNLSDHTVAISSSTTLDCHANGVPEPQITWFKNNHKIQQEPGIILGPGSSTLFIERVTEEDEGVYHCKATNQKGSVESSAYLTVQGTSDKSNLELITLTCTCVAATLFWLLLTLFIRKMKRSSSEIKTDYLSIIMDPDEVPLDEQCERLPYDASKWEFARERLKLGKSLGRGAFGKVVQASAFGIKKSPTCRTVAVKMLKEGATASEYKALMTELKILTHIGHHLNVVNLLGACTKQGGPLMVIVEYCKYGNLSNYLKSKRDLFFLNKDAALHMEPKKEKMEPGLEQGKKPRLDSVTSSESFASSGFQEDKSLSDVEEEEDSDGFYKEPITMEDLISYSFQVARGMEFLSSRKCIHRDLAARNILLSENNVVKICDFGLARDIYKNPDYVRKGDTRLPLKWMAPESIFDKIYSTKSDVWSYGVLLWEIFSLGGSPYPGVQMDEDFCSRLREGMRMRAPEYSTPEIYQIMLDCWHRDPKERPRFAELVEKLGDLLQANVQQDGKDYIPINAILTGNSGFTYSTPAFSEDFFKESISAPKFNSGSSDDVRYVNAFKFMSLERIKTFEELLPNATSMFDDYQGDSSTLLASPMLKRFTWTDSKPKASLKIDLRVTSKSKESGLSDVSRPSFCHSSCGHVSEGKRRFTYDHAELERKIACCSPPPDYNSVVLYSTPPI
T19 sequence (Q13882 whole entry): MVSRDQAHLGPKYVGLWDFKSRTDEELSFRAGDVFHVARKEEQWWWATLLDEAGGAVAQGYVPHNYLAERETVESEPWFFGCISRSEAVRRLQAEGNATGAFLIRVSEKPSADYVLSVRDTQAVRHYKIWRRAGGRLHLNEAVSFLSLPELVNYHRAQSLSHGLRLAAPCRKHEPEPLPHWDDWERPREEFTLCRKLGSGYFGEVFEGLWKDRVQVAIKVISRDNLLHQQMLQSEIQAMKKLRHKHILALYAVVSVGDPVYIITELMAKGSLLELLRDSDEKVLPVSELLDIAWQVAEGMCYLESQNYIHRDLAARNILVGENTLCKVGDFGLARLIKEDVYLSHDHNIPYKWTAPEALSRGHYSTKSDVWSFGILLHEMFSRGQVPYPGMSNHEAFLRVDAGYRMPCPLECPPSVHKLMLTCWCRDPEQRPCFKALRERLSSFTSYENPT
T1 sequence (P08922 28-2347): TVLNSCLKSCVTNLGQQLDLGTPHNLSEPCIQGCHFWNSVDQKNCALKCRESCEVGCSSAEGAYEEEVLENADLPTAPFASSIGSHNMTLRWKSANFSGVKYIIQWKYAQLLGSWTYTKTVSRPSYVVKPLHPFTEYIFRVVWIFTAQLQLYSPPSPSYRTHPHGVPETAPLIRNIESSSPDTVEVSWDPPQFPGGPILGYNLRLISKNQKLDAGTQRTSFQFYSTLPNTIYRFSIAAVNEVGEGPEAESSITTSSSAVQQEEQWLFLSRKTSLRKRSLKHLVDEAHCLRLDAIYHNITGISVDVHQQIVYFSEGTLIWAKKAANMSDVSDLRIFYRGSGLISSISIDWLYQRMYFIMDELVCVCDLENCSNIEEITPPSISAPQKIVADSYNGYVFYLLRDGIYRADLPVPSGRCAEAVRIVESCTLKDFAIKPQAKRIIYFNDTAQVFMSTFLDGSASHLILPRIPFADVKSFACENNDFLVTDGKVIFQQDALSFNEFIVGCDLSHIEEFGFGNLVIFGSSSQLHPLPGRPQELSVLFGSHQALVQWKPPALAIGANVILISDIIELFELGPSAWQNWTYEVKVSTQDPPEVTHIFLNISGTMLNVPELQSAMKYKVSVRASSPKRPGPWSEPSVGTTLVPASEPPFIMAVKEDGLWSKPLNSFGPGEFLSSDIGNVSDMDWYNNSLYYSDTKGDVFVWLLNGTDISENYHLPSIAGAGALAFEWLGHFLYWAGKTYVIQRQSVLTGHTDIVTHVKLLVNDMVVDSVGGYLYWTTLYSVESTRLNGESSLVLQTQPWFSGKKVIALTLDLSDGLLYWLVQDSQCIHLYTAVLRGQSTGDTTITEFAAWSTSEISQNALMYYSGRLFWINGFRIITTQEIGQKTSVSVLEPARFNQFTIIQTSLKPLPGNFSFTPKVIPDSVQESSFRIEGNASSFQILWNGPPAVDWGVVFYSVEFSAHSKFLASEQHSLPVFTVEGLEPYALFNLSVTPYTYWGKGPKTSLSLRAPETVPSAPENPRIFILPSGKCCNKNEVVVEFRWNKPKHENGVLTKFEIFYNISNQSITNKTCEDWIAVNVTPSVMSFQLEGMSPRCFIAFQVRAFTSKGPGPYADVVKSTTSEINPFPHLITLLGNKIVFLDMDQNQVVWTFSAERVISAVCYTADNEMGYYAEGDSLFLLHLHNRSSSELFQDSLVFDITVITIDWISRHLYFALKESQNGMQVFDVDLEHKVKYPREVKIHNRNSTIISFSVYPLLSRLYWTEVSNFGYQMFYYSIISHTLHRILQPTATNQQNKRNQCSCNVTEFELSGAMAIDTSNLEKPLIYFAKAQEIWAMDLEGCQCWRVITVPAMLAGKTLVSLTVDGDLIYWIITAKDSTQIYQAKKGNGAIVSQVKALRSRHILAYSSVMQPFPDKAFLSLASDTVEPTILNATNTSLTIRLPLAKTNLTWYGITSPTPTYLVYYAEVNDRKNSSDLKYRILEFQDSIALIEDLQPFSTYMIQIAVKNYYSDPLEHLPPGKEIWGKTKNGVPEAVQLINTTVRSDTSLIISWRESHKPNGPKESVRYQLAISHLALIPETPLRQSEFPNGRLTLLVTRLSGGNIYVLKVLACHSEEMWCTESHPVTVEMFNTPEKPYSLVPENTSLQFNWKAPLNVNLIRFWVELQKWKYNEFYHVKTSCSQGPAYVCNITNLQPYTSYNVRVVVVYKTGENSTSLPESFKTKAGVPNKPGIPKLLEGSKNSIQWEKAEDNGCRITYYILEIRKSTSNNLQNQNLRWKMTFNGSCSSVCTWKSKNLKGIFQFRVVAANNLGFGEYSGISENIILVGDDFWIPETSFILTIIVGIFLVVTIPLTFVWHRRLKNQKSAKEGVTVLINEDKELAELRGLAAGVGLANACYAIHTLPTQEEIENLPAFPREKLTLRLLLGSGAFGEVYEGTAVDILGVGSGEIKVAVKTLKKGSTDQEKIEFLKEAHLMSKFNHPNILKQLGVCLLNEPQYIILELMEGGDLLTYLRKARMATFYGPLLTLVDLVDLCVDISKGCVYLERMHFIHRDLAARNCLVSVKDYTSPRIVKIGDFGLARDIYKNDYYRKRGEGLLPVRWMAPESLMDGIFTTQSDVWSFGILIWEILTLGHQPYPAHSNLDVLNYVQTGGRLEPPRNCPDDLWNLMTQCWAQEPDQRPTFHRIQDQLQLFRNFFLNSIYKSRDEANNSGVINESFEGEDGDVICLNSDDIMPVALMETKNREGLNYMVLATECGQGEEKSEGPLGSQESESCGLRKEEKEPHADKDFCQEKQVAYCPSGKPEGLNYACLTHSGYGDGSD

Nc1nc(N)c2nc(-c3cccc(O)c3)c(-c3cccc(O)c3)nc2n1 [Compound I, 6,7-bis-(3-hydroxyphenyl)-pteridine-2,4-diamine]
Percent Control, Ros [1]: 90%
Percent Control, EphB4 [2]: 68%
Percent Control, CHK1 [3]: 100%
Percent Control, IKKβ [4]: 68%
Percent Control, FGFR2 [5]: 73%
Percent Control, BTK [6]: 75%
Percent Control, PAK4 [7]: 78%
remaining activity at 10 µM [8]: 103%
VEGF signaling culminating in VE-cadherin phosphorylation [9]: interrupt
Percent Control, IKKa [10]: 100%
Percent Control, CDK7 [11]: 82%
Percent Control, PAR-1Ba [12]: 93%
Percent Control, Flt1 [13]: 62%
Percent Control, CDK2 (first entry) [14]: 67%
Percent Control, PDGFRa [15]: 86%
Percent Control, INK3(r) [16]: 64%
Percent Control, GSK3 3 [17]: p70S6K Percent
Percent Control, NEK2 [18]: 98%
Percent Control, Abl (m) [19]: 66%
Percent Control, FGFR1 [20]: 75%
Percent Control, PRAK [21]: 63%
Percent Control, Akt2* [22]: 103%
Percent Control, HIPK2 [23]: 87%
Percent Control, BRK [24]: 79%
Percent Control, PKCpi [25]: 90%
